Experimental findings from patent US20070197957A1, “Implantable sensors, implantable pumps and anti-scarring drug combinations” (priority 2005, published 2007) are described below.

SMILES strings stand for the structures.

What all share (assay): MIC by microtitre broth dilution
What all share (assay type): cell-based
(In general: Dilution methods test growth across graded concentrations, often in twofold steps.)

One assay relates to S. aureus ATCC25923 C622. Particulars: Mueller Hinton broth, 37° C., 24 h, aerobic. As for the experimental part: (§1) MIC assays were conducted essentially as described by Amsterdam, D. 1996, “Susceptibility testing of antimicrobials in liquid media”, p. 52-111, in Loman, V., ed. Antibiotics in laboratory medicine, 4th ed. Williams and Wilkins, Baltimore, Md.
Assay [1] has as its system K. pneumoniae ATCC13883 C238. To be noted: Mueller Hinton broth, 37° C., 24 h, aerobic. As for the experimental part:
as §1

For assay [2], the system named is P. aeruginosa PAE/K799 H187. Particulars: Mueller Hinton broth, 37° C., 24 h, aerobic. As for the experimental part: as §1
A further assay concerns S. pyogenes C721. To be noted: Todd Hewitt broth, 37° C., 24 h, aerobic. The procedure:
as §1

Another assay has as its system E. coli UB1005 C498. Particulars: Mueller Hinton broth, 37° C., 24 h, aerobic. As for the experimental part: as §1
For the next assay, the system named is S. epidermidis C621. Particulars: Mueller Hinton broth, 37° C., 24 h, aerobic. As for the experimental part: as §1

`CC[C@@]1(O)C(=O)OCc2c1cc1n(c2=O)Cc2cc3ccccc3nc2-1` [camptothecin]: the “Minimum inhibitory concentration, S. aureus ATCC25923 C622 wt Gram+” value in the assay with S. aureus ATCC25923 C622 is recorded as “N”. For the same molecule, in assay [1], the “Minimum inhibitory concentration, K. pneumoniae ATCC13883 C238 wt Gram−” value is “N”. Also, the “Minimum inhibitory concentration, P. aeruginosa PAE/K799 H187 Wt Gram−” value in assay [2] is “N”. For the same molecule, the “Minimum inhibitory concentration, S. pyogenes C721 wt Gram+” value with S. pyogenes C721 is recorded as “N”. Further, the “Minimum inhibitory concentration, E. coli UB1005 C498 wt Gram−” value in the assay with E. coli UB1005 C498 is reported as “N”. Moreover, the “Minimum inhibitory concentration, S. epidermidis C621 wt Gram+” value in the assay on S. epidermidis C621 is listed as 10^−4 Molar.
For `Nc1ccn([C@@H]2O[C@H](CO)[C@@H](O)[C@@H]2O)c(=O)n1` [Cytarabine, cytarabine], in the assay with S. aureus ATCC25923 C622, the “Minimum inhibitory concentration, S. aureus ATCC25923 C622 wt Gram+” value is “N”. In addition, the “Minimum inhibitory concentration, K. pneumoniae ATCC13883 C238 wt Gram−” value in assay [1] is given as “N”. Besides, in assay [2], the “Minimum inhibitory concentration, P. aeruginosa PAE/K799 H187 Wt Gram−” value is “N”. Besides, the “Minimum inhibitory concentration, S. pyogenes C721 wt Gram+” value in the assay on S. pyogenes C721 was “N”. Also, in the assay on E. coli UB1005 C498, the “Minimum inhibitory concentration, E. coli UB1005 C498 wt Gram−” value is on record as “N”. Moreover, the “Minimum inhibitory concentration, S. epidermidis C621 wt Gram+” value in the assay on S. epidermidis C621 is recorded as “N”.
As to `NC(=O)NO` [hydroxyurea], in the assay with S. aureus ATCC25923 C622, the “Minimum inhibitory concentration, S. aureus ATCC25923 C622 wt Gram+” value is reported as “N”. In addition, the “Minimum inhibitory concentration, K. pneumoniae ATCC13883 C238 wt Gram−” value in assay [1] is recorded as “N”. Moreover, the “Minimum inhibitory concentration, P. aeruginosa PAE/K799 H187 Wt Gram−” value in assay [2] is recorded as 10^−4 Molar. The “Minimum inhibitory concentration, S. pyogenes C721 wt Gram+” value in the assay with S. pyogenes C721 is reported as 10^−4 Molar. The “Minimum inhibitory concentration, E. coli UB1005 C498 wt Gram−” value in the assay on E. coli UB1005 C498 is on record as “N”. In addition, the “Minimum inhibitory concentration, S. epidermidis C621 wt Gram+” value with S. epidermidis C621 is “N”.
Regarding `O=C1c2c(O)ccc(O)c2C(=O)c2c(NCCNCCO)ccc(NCCNCCO)c21` [mitoxantrone], the “Minimum inhibitory concentration, S. aureus ATCC25923 C622 wt Gram+” value in the assay on S. aureus ATCC25923 C622 is recorded as 10^−5 Molar. Further, the “Minimum inhibitory concentration, K. pneumoniae ATCC13883 C238 wt Gram−” value in assay [1] is given as 10^−6 Molar. The “Minimum inhibitory concentration, P. aeruginosa PAE/K799 H187 Wt Gram−” value in assay [2] was 10^−5 Molar. The “Minimum inhibitory concentration, S. pyogenes C721 wt Gram+” value in the assay with S. pyogenes C721 was 10^−6 Molar. Moreover, in the assay on E. coli UB1005 C498, the “Minimum inhibitory concentration, E. coli UB1005 C498 wt Gram−” value was 10^−5 Molar. In the assay with S. epidermidis C621, the “Minimum inhibitory concentration, S. epidermidis C621 wt Gram+” value is listed as 10^−5 Molar.
Regarding `Sc1ncnc2nc[nH]c12` [6-mercaptopurine], the “Minimum inhibitory concentration, S. aureus ATCC25923 C622 wt Gram+” value in the assay on S. aureus ATCC25923 C622 is reported as “N”. The “Minimum inhibitory concentration, K. pneumoniae ATCC13883 C238 wt Gram−” value in assay [1] is recorded as “N”. Also, in assay [2], the “Minimum inhibitory concentration, P. aeruginosa PAE/K799 H187 Wt Gram−” value is given as “N”. For the same molecule, the “Minimum inhibitory concentration, S. pyogenes C721 wt Gram+” value in the assay on S. pyogenes C721 was “N”. Also, the “Minimum inhibitory concentration, E. coli UB1005 C498 wt Gram−” value in the assay with E. coli UB1005 C498 is “N”. The “Minimum inhibitory concentration, S. epidermidis C621 wt Gram+” value with S. epidermidis C621 is reported as “N”.
Consider `COc1cccc2c1C(=O)c1c(O)c3c(c(O)c1C2=O)C[C@@](O)(C(=O)CO)C[C@@H]3O[C@H]1C[C@H](N)[C@H](O)[C@H](C)O1` [doxorubicin], for which the “Minimum inhibitory concentration, S. aureus ATCC25923 C622 wt Gram+” value in the assay on S. aureus ATCC25923 C622 is 10^−5 Molar. Also, the “Minimum inhibitory concentration, K. pneumoniae ATCC13883 C238 wt Gram−” value in assay [1] is reported as 10^−6 Molar. Also, in assay [2], the “Minimum inhibitory concentration, P. aeruginosa PAE/K799 H187 Wt Gram−” value is 10^−5 Molar. In the assay on S. pyogenes C721, the “Minimum inhibitory concentration, S. pyogenes C721 wt Gram+” value was 10^−7 Molar. In the assay on E. coli UB1005 C498, the “Minimum inhibitory concentration, E. coli UB1005 C498 wt Gram−” value was 10^−4 Molar. For the same molecule, the “Minimum inhibitory concentration, S. epidermidis C621 wt Gram+” value in the assay with S. epidermidis C621 is on record as 10^−6 Molar.
On to `O=c1[nH]cc(F)c(=O)[nH]1` [5-fluorouracil], for which the “Minimum inhibitory concentration, S. aureus ATCC25923 C622 wt Gram+” value with S. aureus ATCC25923 C622 is recorded as 10^−7 Molar. Moreover, the “Minimum inhibitory concentration, K. pneumoniae ATCC13883 C238 wt Gram−” value in assay [1] was 10^−6 Molar. The “Minimum inhibitory concentration, P. aeruginosa PAE/K799 H187 Wt Gram−” value in assay [2] was 10^−5 Molar. In addition, the “Minimum inhibitory concentration, S. pyogenes C721 wt Gram+” value with S. pyogenes C721 is 10^−4 Molar. The “Minimum inhibitory concentration, E. coli UB1005 C498 wt Gram−” value in the assay on E. coli UB1005 C498 is reported as 10^−6 Molar. Also, the “Minimum inhibitory concentration, S. epidermidis C621 wt Gram+” value in the assay on S. epidermidis C621 was 10^−7 Molar.
As to `COc1cc([C@@H]2c3cc4c(cc3[C@@H](O[C@@H]3O[C@@H]5CO[C@@H](C)O[C@H]5[C@H](O)[C@H]3O)[C@H]3COC(=O)[C@H]23)OCO4)cc(OC)c1O` [etoposide], in the assay with S. aureus ATCC25923 C622, the “Minimum inhibitory concentration, S. aureus ATCC25923 C622 wt Gram+” value is 10^−5 Molar. Also, in assay [1], the “Minimum inhibitory concentration, K. pneumoniae ATCC13883 C238 wt Gram−” value is given as 10^−5 Molar. For the same molecule, in assay [2], the “Minimum inhibitory concentration, P. aeruginosa PAE/K799 H187 Wt Gram−” value was “N”. For the same molecule, in the assay on S. pyogenes C721, the “Minimum inhibitory concentration, S. pyogenes C721 wt Gram+” value was 10^−5 Molar. In addition, the “Minimum inhibitory concentration, E. coli UB1005 C498 wt Gram−” value with E. coli UB1005 C498 is on record as “N”. Moreover, the “Minimum inhibitory concentration, S. epidermidis C621 wt Gram+” value in the assay with S. epidermidis C621 is on record as 10^−6 Molar.
